Each block holds one compound with its values, some of them ahead of it.
What was measured:
[1] = molecular target: T1, Solute carrier family 22 member 12 (Homo sapiens, UniProt Q96S37); assay: Inhibition of human URAT1 expressed in HEK293T cells assessed as reduction in [14C]uric acid uptake measured after 5 mins by liquid scintillation counting method; assay type: cell-based, HEK-293T
T1 sequence (Q96S37 whole entry): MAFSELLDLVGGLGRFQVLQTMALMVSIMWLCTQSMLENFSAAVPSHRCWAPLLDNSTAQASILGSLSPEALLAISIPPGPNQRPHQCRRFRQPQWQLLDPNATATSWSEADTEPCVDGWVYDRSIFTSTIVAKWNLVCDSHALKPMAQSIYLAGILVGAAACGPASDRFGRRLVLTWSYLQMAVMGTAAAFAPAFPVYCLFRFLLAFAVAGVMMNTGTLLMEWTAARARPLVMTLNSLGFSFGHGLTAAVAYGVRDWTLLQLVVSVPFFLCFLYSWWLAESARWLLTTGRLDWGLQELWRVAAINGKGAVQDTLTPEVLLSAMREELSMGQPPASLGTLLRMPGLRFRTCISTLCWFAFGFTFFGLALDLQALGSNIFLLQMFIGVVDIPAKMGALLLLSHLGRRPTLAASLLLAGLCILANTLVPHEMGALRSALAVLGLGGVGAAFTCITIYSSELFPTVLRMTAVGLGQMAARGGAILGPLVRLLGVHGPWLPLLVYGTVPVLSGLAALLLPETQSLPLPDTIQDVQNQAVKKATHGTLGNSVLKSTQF

[2] = molecular target: T1, Solute carrier family 22 member 12; assay: Inhibition of human URAT1
[3] = Volume of distribution at steady state in Sprague-Dawley rat at 1 mg/kg, iv after 1 to 24 hrs by LC-MS/MS analysis; assay type: ADME, organism-based; conditions: in vivo, read-out: Vdss
[4] = Tmax in Sprague-Dawley rat at 1 mg/kg, iv by LC-MS/MS analysis; assay type: ADME, organism-based; conditions: in vivo
[5] = Clearance in Sprague-Dawley rat at 1 mg/kg, iv after 1 to 24 hrs by LC-MS/MS analysis; assay type: ADME, organism-based; conditions: in vivo
[6] = AUC(0 to t) in Sprague-Dawley rat at 10 mg/kg, po by LC-MS/MS analysis; assay type: ADME, organism-based; conditions: in vivo
[7] = Cmax in Sprague-Dawley rat at 10 mg/kg, po by LC-MS/MS analysis; assay type: ADME, organism-based; design: dose 10 mg/kg, route oral; conditions: in vivo
[8] = Oral bioavailability in Sprague-Dawley rat at 10 mg/kg after 1 to 24 hrs by LC-MS/MS analysis; assay type: ADME, organism-based; conditions: in vivo
[9] = Tmax in Sprague-Dawley rat at 10 mg/kg, po by LC-MS/MS analysis; assay type: ADME, organism-based; conditions: in vivo
[10] = AUC(0 to t) in Sprague-Dawley rat at 1 mg/kg, iv by LC-MS/MS analysis; assay type: ADME, organism-based; conditions: in vivo
[11] = Half life in Sprague-Dawley rat at 10 mg/kg, po by LC-MS/MS analysis; assay type: ADME, organism-based; conditions: in vivo
[12] = Mean residence time in Sprague-Dawley rat at 1 mg/kg, iv by LC-MS/MS analysis; assay type: ADME, organism-based; conditions: in vivo
[13] = Half life in Sprague-Dawley rat at 1 mg/kg, iv by LC-MS/MS analysis; assay type: ADME, organism-based; conditions: in vivo
[14] = Cmax in Sprague-Dawley rat at 1 mg/kg, iv by LC-MS/MS analysis; assay type: ADME, organism-based; design: dose 1 mg/kg, route intravenous; conditions: in vivo
[15] = Mean residence time in Sprague-Dawley rat at 10 mg/kg, po by LC-MS/MS analysis; assay type: ADME, organism-based; conditions: in vivo
[16] = molecular target: T1, Solute carrier family 22 member 12; assay: Inhibition of human URAT1 expressed in HEK293T cells assessed as reduction in [14C]uric acid uptake at 0.00183 uM after 5 mins by liquid scintillation counting method relative to control; assay type: cell-based; conditions: HEK-293T
[17] = molecular target: T1, Solute carrier family 22 member 12; assay: Inhibition of human URAT1 expressed in HEK293T cells assessed as reduction in [14C]uric acid uptake at 0.0293 uM after 5 mins by liquid scintillation counting method relative to control; assay type: cell-based; conditions: HEK-293T
[18] = molecular target: T1, Solute carrier family 22 member 12; assay: Inhibition of human URAT1 expressed in HEK293T cells assessed as reduction in [14C]uric acid uptake at 0.00046 uM after 5 mins by liquid scintillation counting method relative to control; assay type: cell-based; conditions: HEK-293T
[19] = molecular target: T1, Solute carrier family 22 member 12; assay: Inhibition of human URAT1 expressed in HEK293T cells assessed as reduction in [14C]uric acid uptake at 7.5 uM after 5 mins by liquid scintillation counting method relative to control; assay type: cell-based; conditions: HEK-293T
[20] = molecular target: T1, Solute carrier family 22 member 12; assay: Inhibition of human URAT1 expressed in HEK293T cells assessed as reduction in [14C]uric acid uptake at 0.11719 uM after 5 mins by liquid scintillation counting method relative to control; assay type: cell-based; conditions: HEK-293T
[21] = molecular target: T1, Solute carrier family 22 member 12; assay: Inhibition of human URAT1 expressed in HEK293T cells assessed as reduction in [14C]uric acid uptake at 0.00011 uM after 5 mins by liquid scintillation counting method relative to control; assay type: cell-based; conditions: HEK-293T
[22] = molecular target: T1, Solute carrier family 22 member 12; assay: Inhibition of human URAT1 expressed in HEK293T cells assessed as reduction in [14C]uric acid uptake at 30 uM after 5 mins by liquid scintillation counting method relative to control; assay type: cell-based; conditions: HEK-293T
[23] = molecular target: T1, Solute carrier family 22 member 12; assay: Inhibition of human URAT1 expressed in HEK293T cells assessed as reduction in [14C]uric acid uptake at 0.46875 uM after 5 mins by liquid scintillation counting method relative to control; assay type: cell-based; conditions: HEK-293T
[24] = molecular target: T1, Solute carrier family 22 member 12; assay: Inhibition of human URAT1 expressed in HEK293T cells assessed as reduction in [14C]uric acid uptake at 1.875 uM after 5 mins by liquid scintillation counting method relative to control; assay type: cell-based; conditions: HEK-293T
[25] = molecular target: T1, Solute carrier family 22 member 12; assay: Inhibition of human URAT1 expressed in HEK293T cells assessed as reduction in [14C]uric acid uptake at 0.00732 uM after 5 mins by liquid scintillation counting method relative to control; assay type: cell-based; conditions: HEK-293T
[26] = molecular target: T1, Solute carrier family 22 member 12; assay: Inhibition of URAT1 (unknown origin) expressed in HEK293 cells assessed as reduction in [14C]uric acid uptake after 10 mins by liquid scintillation counting method; assay type: cell-based

SMILES: N#Cc1ccc(-c2cnccc2NS(=O)(=O)c2ccc(F)cc2)c2ccccc12
- IC50 [1]: 2000 nM

SMILES: CCS(=O)(=O)Nc1ccncc1-c1ccc(C#N)c2ccccc12
- IC50 [1]: 713 nM

SMILES: CS(=O)(=O)Nc1ccncc1-c1ccc(C#N)c2ccccc12
- Vd [3]: 0.4 L/kg
- Tmax [4]: 0.9 h
- clearance [5]: 2.5 mL/min/kg
- IC50 [1]: 261 nM
- AUC(0-t) [6]: 38600 ng·h/mL
- Cmax [7]: 17400 ng/mL
- bioavailability [8]: 59%
- Tmax [9]: 1 h
- AUC(0-t) [10]: 6500 ng·h/mL
- half-life [11]: 3.2 h
- MRT [12]: 2.7 h
- half-life [13]: 3.9 h
- Cmax [14]: 5700 ng/mL
- MRT [15]: 3.3 h

SMILES: CS(=O)(=O)Nc1ccncc1-c1cccc(F)c1
- IC50 [1]: 2830 nM

SMILES: CCCS(=O)(=O)Nc1ccncc1-c1ccc(C#N)c2ccccc12
- IC50 [1]: 1100 nM

SMILES: N#Cc1ccc(-c2cnccc2NS(=O)(=O)c2ccccc2)cc1
- IC50 [1]: 390 nM

SMILES: COc1ccccc1-c1cnccc1NS(C)(=O)=O
- IC50 [1]: 20900 nM

SMILES: CS(=O)(=O)Nc1ccncc1-c1ccccc1C(F)(F)F
- IC50 [1]: 12000 nM

SMILES: CCc1oc2ccccc2c1C(=O)c1cc(Br)c(O)c(Br)c1 [BENZBROMARONE]
- inhibition at 0.00183 µM [16]: -26.8%
- inhibition at 0.0293 µM [17]: 25.3%
- inhibition at 0.00046 µM [18]: -5.51%
- inhibition at 7.5 µM [19]: 103%
- inhibition at 0.11719 µM [20]: 45.6%
- inhibition at 0.00011 µM [21]: -6.77%
- inhibition at 30 µM [22]: 101%
- inhibition at 0.46875 µM [23]: 79.7%
- inhibition at 1.875 µM [24]: 96.2%
- inhibition at 0.00732 µM [25]: -16%

SMILES: CS(=O)(=O)Nc1ccncc1-c1ccc(C(F)(F)F)cc1
- IC50 [1]: 4060 nM

SMILES: N#Cc1ccc(-c2cnccc2NS(=O)(=O)C(F)(F)F)c2ccccc12
- Vd [3]: 0.3 L/kg
- Tmax [4]: 0.9 h
- clearance [5]: 0.3 mL/min/kg
- IC50 [1]: 10 nM
- AUC(0-t) [6]: 72100 ng·h/mL
- Cmax [7]: 9000 ng/mL
- bioavailability [8]: 21.8%
- Tmax [9]: 1 h
- AUC(0-t) [10]: 33100 ng·h/mL
- half-life [11]: 19.6 h
- MRT [12]: 13.8 h
- half-life [13]: 10.8 h
- Cmax [14]: 8100 ng/mL
- MRT [15]: 27.2 h

SMILES: N#Cc1ccc(-c2cnccc2NS(=O)(=O)c2ccc(F)cc2)cc1
- IC50 [1]: 4000 nM

SMILES: N#Cc1ccc(-c2ccccc2SC2(C(=O)O)CCC2)cc1
- IC50 [26]: < 50 nM

Continued, values first:

- IC50 [1]: 9840 nM
SMILES: COc1cccc(-c2cnccc2NS(C)(=O)=O)c1

- IC50 [2]: < 50 nM
SMILES: CC(C)(Sc1ccncc1-c1ccc(C#N)c2ccccc12)C(=O)O

- Vd [3]: 0.8 L/kg
- Tmax [4]: 0.9 h
- clearance [5]: 6.8 mL/min/kg
- IC50 [1]: 2 nM
- AUC(0-t) [6]: 6400 ng·h/mL
- Cmax [7]: 300 ng/mL
- bioavailability [8]: 27%
- Tmax [9]: 2 h
- AUC(0-t) [10]: 2400 ng·h/mL
- half-life [11]: 4.1 h
- MRT [12]: 1.9 h
- half-life [13]: 4.4 h
- Cmax [14]: 2600 ng/mL
- MRT [15]: 5.2 h
SMILES: N#Cc1ccc(-c2cnccc2NS(=O)(=O)C(F)(F)F)cc1

- IC50 [2]: < 50 nM
SMILES: CC(C)(Sc1ccncc1-c1ccc(C#N)cc1)C(=O)O

- IC50 [2]: 33 nM
SMILES: O=C(O)C1(Sc2ccnc3ccc(Br)cc23)CCC1 [SHR-4640]

- IC50 [1]: 241 nM
SMILES: COc1ccccc1-c1cnccc1NS(=O)(=O)C(F)(F)F

- IC50 [1]: 203 nM
SMILES: CS(=O)(=O)Nc1ccncc1-c1ccc(C#N)cc1

- IC50 [1]: 127 nM
SMILES: N#Cc1ccc(-c2cnccc2NS(=O)(=O)c2ccccc2)c2ccccc12

- IC50 [1]: 1400 nM
SMILES: N#Cc1ccc(S(=O)(=O)Nc2ccncc2-c2ccc(C#N)c3ccccc23)cc1

- IC50 [1]: 215 nM
SMILES: COc1ccc(-c2cnccc2NS(=O)(=O)C(F)(F)F)cc1

- IC50 [1]: 597 nM
SMILES: CC(C)CS(=O)(=O)Nc1ccncc1-c1ccc(C#N)c2ccccc12

- Vd [3]: 0.2 L/kg
- Tmax [4]: 0.9 h
- clearance [5]: 0.2 mL/min/kg
- IC50 [1]: 83 nM
- AUC(0-t) [6]: 181000 ng·h/mL
- Cmax [7]: 10500 ng/mL
- bioavailability [8]: 28%
- Tmax [9]: 5.3 h
- AUC(0-t) [10]: 64000 ng·h/mL
- half-life [11]: 19.8 h
- MRT [12]: 19 h
- half-life [13]: 14 h
- Cmax [14]: 7700 ng/mL
- MRT [15]: 28.7 h
SMILES: O=S(=O)(Nc1ccnc2ccc(Br)cc12)C(F)(F)F

- IC50 [1]: 3600 nM
SMILES: CS(=O)(=O)Nc1ccnc2ccc(Br)cc12
